pEC50, pIC50: −log10 of the molar value.
What was measured:
Hepatitis B virus [1] = experiment: Antiviral activity against HBV in human HepG2.2.15 cells assessed as reduction in viral replication incubated for 5 days by real-time PCR analysis; assay type: functional, organism-based; settings: HepG2.2.15, 120 h
[2] = Cytotoxicity in human HepG2.2.15 cells assessed as reduction in cell viability; assay type: toxicity, cell-based, HepG2 2.2.15
[3] = Selectivity index, ratio of CC50 for cytotoxicity in human HepG2.2.15 cells assessed as reduction in cell viability to EC50 for antiviral activity against HBV in human HepG2.2.15 cells assessed as reduction in viral replication; assay type: toxicity, cell-based; settings: read-out: Ratio CC50/EC50
[4] = Metabolic stability in mouse liver microsomes assessed as compound remaining measured after 30 mins; assay type: ADME, Microsome; settings: read-out: Stability
[5] = Metabolic stability in rat liver microsomes assessed as compound remaining measured after 30 mins; assay type: ADME, Microsome; settings: read-out: Stability
[6] = Metabolic stability in human liver microsomes assessed as compound remaining measured after 30 mins; assay type: ADME, Microsome; settings: read-out: Stability
[7] = Stability in mouse plasma assessed as compound remaining incubated for 4 hrs; assay type: ADME, cell-free; settings: read-out: Stability
[8] = Stability in human plasma assessed as compound remaining incubated for 4 hrs; assay type: ADME, cell-free; settings: read-out: Stability
[9] = Plasma protein binding in mouse; assay type: ADME, cell-free; settings: read-out: PPB (converted)
[10] = Plasma protein binding in human; assay type: ADME, cell-free; settings: read-out: PPB (converted)
[11] = Cytotoxicity in African green monkey Vero cells; assay type: toxicity, cell-based, Chlorocebus sabaeus
[12] = Cytotoxicity in HFL1 cells; assay type: toxicity, cell-based; settings: human
[13] = Cytotoxicity in mouse L929 cells; assay type: toxicity, cell-based
[14] = Cytotoxicity in mouse NIH3T3 cells; assay type: toxicity, cell-based
[15] = Cytotoxicity in CHO-K1 cells; assay type: toxicity, cell-based, Cricetulus griseus; settings: Chinese hamster
Cytochrome P450 1A2 = target: T1, Cytochrome P450 1A2 (Homo sapiens, UniProt P05177); experiment: Inhibition of CYP1A2 in human liver microsome; assay type: ADME, microsomes
T1 sequence (P05177 whole entry): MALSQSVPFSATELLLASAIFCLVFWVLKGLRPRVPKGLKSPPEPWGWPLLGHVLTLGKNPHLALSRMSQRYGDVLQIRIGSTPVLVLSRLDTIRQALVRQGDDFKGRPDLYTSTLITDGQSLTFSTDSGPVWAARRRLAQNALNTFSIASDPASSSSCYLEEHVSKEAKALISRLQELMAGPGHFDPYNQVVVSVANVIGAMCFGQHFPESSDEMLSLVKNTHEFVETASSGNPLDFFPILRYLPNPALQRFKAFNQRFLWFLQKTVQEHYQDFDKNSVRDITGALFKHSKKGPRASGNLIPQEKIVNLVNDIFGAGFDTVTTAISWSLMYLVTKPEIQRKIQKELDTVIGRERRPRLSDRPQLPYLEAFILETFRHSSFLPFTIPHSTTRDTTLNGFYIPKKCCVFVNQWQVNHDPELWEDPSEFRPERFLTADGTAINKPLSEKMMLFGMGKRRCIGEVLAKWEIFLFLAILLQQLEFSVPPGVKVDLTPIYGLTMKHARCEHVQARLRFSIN

Cytochrome P450 2C9 = Cytochrome P450 2C9 (Homo sapiens, UniProt P11712); experiment: Inhibition of CYP2C9 in human liver microsome; assay type: ADME, microsomes
Cytochrome P450 2C19 = Cytochrome P450 2C19 (Homo sapiens, UniProt P33261); experiment: Inhibition of CYP2C19 in human liver microsome; assay type: ADME, microsomes
Cytochrome P450 2D6 = Cytochrome P450 2D6 (Homo sapiens, UniProt P10635); experiment: Inhibition of CYP2D6 in human liver microsome; assay type: ADME, microsomes
Cytochrome P450 3A4 = Cytochrome P450 3A4 (Homo sapiens, UniProt P08684); experiment: Inhibition of CYP3A4 in human liver microsome; assay type: ADME, microsomes
[16] = target: Voltage-gated inwardly rectifying potassium channel KCNH2 (Homo sapiens, UniProt Q12809); experiment: Inhibition of human ERG; assay type: toxicity
Hepatitis B virus [17] = experiment: Antiviral activity against HBV in human HepG2 cells expressing NTCP assessed as reduction in viral replication; assay type: functional, organism-based
Hepatitis B virus [18] = experiment: Antiviral activity against HBV in human HepaRG cells assessed as reduction in viral replication; assay type: functional, organism-based
[19] = Cytotoxicity in human HepG2-hNTCP cells assessed as reduction in cell viability; assay type: toxicity, cell-based
[20] = Cytotoxicity in human HepaRG cells assessed as reduction in cell viability; assay type: toxicity, cell-based
[21] = Selectivity index, ratio of CC50 for cytotoxicity in human HepG2-hNTCP cells assessed as reduction in cell viability to EC50 for antiviral activity against HBV in human HepG2-hNTCP cells assessed as reduction in viral replication; assay type: toxicity, cell-based; settings: read-out: Ratio CC50/EC50
[22] = Selectivity index, ratio of CC50 for cytotoxicity in human HepaRG cells assessed as reduction in cell viability to EC50 for antiviral activity against HBV in human HepaRG cells assessed as reduction in viral replication; assay type: toxicity, cell-based; settings: read-out: Ratio CC50/EC50
[23] = Half life in male mouse at 5 mg/kg, iv; assay type: ADME, organism-based; settings: in vivo
[24] = AUClast in male mouse at 5 mg/kg, iv; assay type: ADME, organism-based; settings: in vivo
[25] = AUC (0 to infinity) in male mouse at 5 mg/kg, iv; assay type: ADME, organism-based; settings: in vivo
[26] = Clearance in male mouse at 5 mg/kg, iv; assay type: ADME, organism-based; settings: in vivo
[27] = Volume of distribution at steady state in male mouse at 5 mg/kg, iv; assay type: ADME, organism-based; settings: in vivo, read-out: Vdss
[28] = Half life in male mouse at 20 mg/kg, iv; assay type: ADME, organism-based; settings: in vivo
[29] = AUClast in male mouse at 20 mg/kg, iv; assay type: ADME, organism-based; settings: in vivo
[30] = AUC (0 to infinity) in male mouse at 20 mg/kg, iv; assay type: ADME, organism-based; settings: in vivo
[31] = Clearance in male mouse at 20 mg/kg, iv; assay type: ADME, organism-based; settings: in vivo
[32] = Volume of distribution at steady state in male mouse at 20 mg/kg, iv; assay type: ADME, organism-based; settings: in vivo, read-out: Vdss
[33] = Tmax in male mouse at 5 mg/kg, po; assay type: ADME, organism-based; settings: in vivo
[34] = Cmax in male mouse at 5 mg/kg, po; assay type: ADME, organism-based; settings: in vivo
[35] = Half life in male mouse at 5 mg/kg, po; assay type: ADME, organism-based; settings: in vivo
[36] = AUClast in male mouse at 5 mg/kg, po; assay type: ADME, organism-based; settings: in vivo
[37] = AUC (0 to infinity) in male mouse at 5 mg/kg, po; assay type: ADME, organism-based; settings: in vivo
[38] = Oral bioavailability in male mouse at 5 mg/kg; assay type: ADME, organism-based; settings: in vivo
[39] = Tmax in male mouse at 20 mg/kg, po; assay type: ADME, organism-based; settings: in vivo
[40] = Cmax in male mouse at 20 mg/kg, po; assay type: ADME, organism-based; settings: in vivo
[41] = Half life in male mouse at 20 mg/kg, po; assay type: ADME, organism-based; settings: in vivo
[42] = AUClast in male mouse at 20 mg/kg, po; assay type: ADME, organism-based; settings: in vivo
[43] = AUC (0 to infinity) in male mouse at 20 mg/kg, po; assay type: ADME, organism-based; settings: in vivo
[44] = Oral bioavailability in male mouse at 20 mg/kg; assay type: ADME, organism-based; settings: in vivo
Hepatitis B virus [45] = experiment: Antiviral activity against HBV infected in human HepG2 cells expressing NTCP assessed as viral DNA replication at 1 uM incubated for 6 days by Southern blot analysis (reference value: 100 %); assay type: functional; settings: time 6 day
Hepatitis B virus [46] = experiment: Antiviral activity against HBV infected in human HepG2 cells expressing NTCP assessed as fold reduction in capsid associated viral DNA level at 1 uM incubated for 6 days by Southern blot analysis relative to control; assay type: functional; settings: time 6 day
Hepatitis B virus [47] = experiment: Antiviral activity against HBV infected in human HepG2 cells expressing NTCP assessed as capsid level at 1 uM incubated for 6 days by Western blot analysis (reference value: 100 %); assay type: functional; settings: time 6 day
Hepatitis B virus [48] = experiment: Antiviral activity against HBV infected in human HepG2 cells expressing NTCP assessed as capsid associated HBV DNA level at 1 uM incubated for 6 days by Western blot analysis (reference value: 100 %); assay type: functional; settings: time 6 day
HepG2 [49] = experiment: Effect on viral rcDNA level in human HepG2 cells expressing NTCP infected with HBV at 1 uM incubated for 6 days by Southern blot analysis; assay type: functional, cell-based; settings: time 6.0 day
HepG2 [50] = experiment: Effect on viral dslDNA level in human HepG2 cells expressing NTCP infected with HBV at 1 uM incubated for 6 days by Southern blot analysis; assay type: functional, cell-based; settings: time 6.0 day
HepG2 [51] = experiment: Effect on viral ssDNA level in human HepG2 cells expressing NTCP cells infected with HBV at 1 uM incubated for 6 days by Southern blot analysis; assay type: functional, cell-based; settings: time 6.0 day
Hepatitis B virus [52] = experiment: Antiviral activity against HBV infected in human HepG2 cells expressing NTCP assessed as fold increase in intracellular capsid level at 1 uM incubated for 6 days by Western blot analysis relative to control; assay type: functional; settings: time 6 day
Hepatitis B virus [53] = experiment: Antiviral activity against HBV infected in human HepG2 cells expressing NTCP assessed as decrease in intracellular HBc level at 1 uM incubated for 6 days by indirect immunofluorescence staining based analysis; assay type: functional, organism-based; settings: time 6.0 day
Hepatitis B virus [54] = experiment: Antiviral activity against HBV infected in human HepG2 cells expressing NTCP assessed as intracellular HBc level at 1 uM incubated for 6 days by Western blot analysis (reference value: 100 %); assay type: functional; settings: time 6 day
Hepatitis B virus [55] = experiment: Antiviral activity against HBV infected in human HepG2 cells expressing NTCP assessed as ratio of capsid associated HBV DNA level at 1 uM incubated for 6 days by Western blot analysis (reference value: 100 %); assay type: functional; settings: time 6 day

Sequence of Cytochrome P450 2D6 (P10635 whole entry): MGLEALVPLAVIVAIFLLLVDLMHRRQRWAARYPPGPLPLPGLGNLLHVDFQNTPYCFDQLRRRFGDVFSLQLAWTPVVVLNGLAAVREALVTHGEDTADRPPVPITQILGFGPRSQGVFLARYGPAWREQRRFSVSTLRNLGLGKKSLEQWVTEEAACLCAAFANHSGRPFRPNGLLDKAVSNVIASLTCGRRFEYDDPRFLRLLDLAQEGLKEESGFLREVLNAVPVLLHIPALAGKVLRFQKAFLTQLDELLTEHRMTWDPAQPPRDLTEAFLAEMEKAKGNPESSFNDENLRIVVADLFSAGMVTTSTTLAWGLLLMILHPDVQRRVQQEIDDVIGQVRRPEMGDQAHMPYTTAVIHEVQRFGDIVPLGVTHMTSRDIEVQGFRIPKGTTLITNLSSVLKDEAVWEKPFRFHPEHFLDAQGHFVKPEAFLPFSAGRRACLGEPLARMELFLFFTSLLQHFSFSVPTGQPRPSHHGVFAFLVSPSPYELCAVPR
Sequence of Cytochrome P450 3A4 (P08684 whole entry): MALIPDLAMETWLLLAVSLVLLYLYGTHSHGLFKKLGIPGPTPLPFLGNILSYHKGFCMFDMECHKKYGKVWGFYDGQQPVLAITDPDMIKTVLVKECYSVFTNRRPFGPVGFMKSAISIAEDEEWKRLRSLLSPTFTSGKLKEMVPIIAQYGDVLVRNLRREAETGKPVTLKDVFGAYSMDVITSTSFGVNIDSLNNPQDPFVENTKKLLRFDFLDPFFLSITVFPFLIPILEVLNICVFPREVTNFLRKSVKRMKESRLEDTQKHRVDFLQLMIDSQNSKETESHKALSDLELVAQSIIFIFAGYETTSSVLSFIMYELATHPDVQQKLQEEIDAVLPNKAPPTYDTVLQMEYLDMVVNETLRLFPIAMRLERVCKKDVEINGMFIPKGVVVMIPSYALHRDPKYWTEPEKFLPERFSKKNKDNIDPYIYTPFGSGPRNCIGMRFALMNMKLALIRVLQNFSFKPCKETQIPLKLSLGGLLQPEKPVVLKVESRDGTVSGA
Sequence of Cytochrome P450 2C9 (P11712 whole entry): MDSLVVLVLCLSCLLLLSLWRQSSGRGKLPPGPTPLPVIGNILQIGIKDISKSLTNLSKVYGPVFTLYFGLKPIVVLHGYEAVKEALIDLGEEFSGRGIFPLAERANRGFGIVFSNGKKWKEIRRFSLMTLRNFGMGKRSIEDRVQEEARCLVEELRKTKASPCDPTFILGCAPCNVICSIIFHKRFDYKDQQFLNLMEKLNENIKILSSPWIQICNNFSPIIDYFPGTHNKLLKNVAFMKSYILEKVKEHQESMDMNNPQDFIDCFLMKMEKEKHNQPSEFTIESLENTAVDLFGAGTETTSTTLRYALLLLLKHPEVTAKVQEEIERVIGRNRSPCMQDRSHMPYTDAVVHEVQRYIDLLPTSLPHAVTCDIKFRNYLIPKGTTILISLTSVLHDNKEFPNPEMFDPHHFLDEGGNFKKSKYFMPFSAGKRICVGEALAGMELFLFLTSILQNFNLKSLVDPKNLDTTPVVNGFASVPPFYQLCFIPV
Sequence of Voltage-gated inwardly rectifying potassium channel KCNH2 (Q12809 whole entry): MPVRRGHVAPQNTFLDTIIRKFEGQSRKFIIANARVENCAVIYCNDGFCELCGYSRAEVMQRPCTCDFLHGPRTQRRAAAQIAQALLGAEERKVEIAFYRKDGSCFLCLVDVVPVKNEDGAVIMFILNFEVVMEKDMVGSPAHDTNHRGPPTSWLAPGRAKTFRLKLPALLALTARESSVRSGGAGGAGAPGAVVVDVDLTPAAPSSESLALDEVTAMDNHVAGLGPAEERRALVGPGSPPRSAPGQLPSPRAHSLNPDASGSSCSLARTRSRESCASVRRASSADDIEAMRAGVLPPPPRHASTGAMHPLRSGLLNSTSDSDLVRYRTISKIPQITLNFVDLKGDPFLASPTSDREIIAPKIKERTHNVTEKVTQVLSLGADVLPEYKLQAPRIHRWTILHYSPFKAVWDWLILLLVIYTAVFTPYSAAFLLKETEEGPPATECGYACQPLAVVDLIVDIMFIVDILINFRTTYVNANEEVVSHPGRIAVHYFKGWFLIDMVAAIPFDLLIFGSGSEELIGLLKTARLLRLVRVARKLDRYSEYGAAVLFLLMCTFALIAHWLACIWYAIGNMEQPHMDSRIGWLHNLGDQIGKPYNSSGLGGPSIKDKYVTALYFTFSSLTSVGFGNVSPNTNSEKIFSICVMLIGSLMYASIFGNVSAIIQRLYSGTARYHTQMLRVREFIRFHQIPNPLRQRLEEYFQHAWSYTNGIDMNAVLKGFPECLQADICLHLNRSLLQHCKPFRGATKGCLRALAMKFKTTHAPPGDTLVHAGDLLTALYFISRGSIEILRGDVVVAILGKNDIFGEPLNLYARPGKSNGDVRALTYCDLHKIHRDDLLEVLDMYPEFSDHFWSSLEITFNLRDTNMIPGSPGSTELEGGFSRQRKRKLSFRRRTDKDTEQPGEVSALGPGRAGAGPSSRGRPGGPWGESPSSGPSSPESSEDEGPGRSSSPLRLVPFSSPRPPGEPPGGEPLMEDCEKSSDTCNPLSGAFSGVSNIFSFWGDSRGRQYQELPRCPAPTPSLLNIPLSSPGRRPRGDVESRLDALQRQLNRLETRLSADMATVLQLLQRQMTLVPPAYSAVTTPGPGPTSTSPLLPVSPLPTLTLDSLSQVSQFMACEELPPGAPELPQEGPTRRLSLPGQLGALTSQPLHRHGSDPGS
Sequence of Cytochrome P450 2C19 (P33261 whole entry): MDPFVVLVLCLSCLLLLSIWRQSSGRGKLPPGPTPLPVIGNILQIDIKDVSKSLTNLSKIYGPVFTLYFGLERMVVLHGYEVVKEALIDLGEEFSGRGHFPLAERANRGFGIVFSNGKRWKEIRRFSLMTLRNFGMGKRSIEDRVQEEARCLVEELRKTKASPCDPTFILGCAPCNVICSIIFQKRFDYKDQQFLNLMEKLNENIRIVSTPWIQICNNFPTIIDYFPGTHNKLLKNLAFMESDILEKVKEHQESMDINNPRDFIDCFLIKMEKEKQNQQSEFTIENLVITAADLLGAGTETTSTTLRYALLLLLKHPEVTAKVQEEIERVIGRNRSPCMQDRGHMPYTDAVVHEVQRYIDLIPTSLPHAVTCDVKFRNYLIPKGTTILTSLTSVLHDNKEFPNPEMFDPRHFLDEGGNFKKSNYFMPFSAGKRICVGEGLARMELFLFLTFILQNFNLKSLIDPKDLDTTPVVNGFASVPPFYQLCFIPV

`Nc1cc(F)c(S(=O)(=O)N[C@H]2CNC2=O)cc1C(=O)Nc1ccc(F)c(C(F)F)c1` gave a pEC50 (Hepatitis B virus [1]) of 6.92, a CC50 [2] of 173 µM and a selectivity ratio [3] of 1420. It also gave a remaining at 0.5 h [4] of 49%, a remaining at 0.5 h [5] of 51% and a remaining at 0.5 h [6] of 66.9%. For the same compound, the remaining at 4 h [7] was 43.2%, the remaining at 4 h [8] was 85.4% and the fraction unbound [9] was 0.0555. For the same compound, the fraction unbound [10] was 0.115, the pIC50 [11] was under 4.00 and the pIC50 [12] was under 4.00. The pIC50 [13] was under 4.00, the pIC50 [14] was under 4.00 and the pIC50 [15] was under 4.00. It also gave a pIC50 (Cytochrome P450 1A2) of under 4.00, a pIC50 (Cytochrome P450 2C9) of 4.51 and a pIC50 (Cytochrome P450 2C19) of 4.35. The pIC50 (Cytochrome P450 2D6) was 4.52, the pIC50 (Cytochrome P450 3A4) was 4.58 and the pIC50 [16] was under 5.00. It also gave a pEC50 (Hepatitis B virus [17]) of 6.96, a pEC50 (Hepatitis B virus [18]) of 6.26 and a CC50 [19] of over 100 µM. The CC50 [20] was over 100 µM, the selectivity ratio [21] was over 909 and the selectivity ratio [22] was over 182. For the same compound, the half-life [23] was 2.37 h, the AUC(0-t) [24] was 2390 ng·h/mL and the AUC(0-inf) [25] was 2400 ng·h/mL. The clearance [26] was 35.2 mL/min/kg, the Vd [27] was 2.95 L/kg and the half-life [28] was 5.15 h. The AUC(0-t) [29] was 6880 ng·h/mL, the AUC(0-inf) [30] was 6950 ng·h/mL and the clearance [31] was 50.5 mL/min/kg. It also gave a Vd [32] of 4.16 L/kg, a Tmax [33] of 0.5 h and a Cmax [34] of 280 ng/mL. The half-life [35] was 2.8 h, the AUC(0-t) [36] was 620 ng·h/mL and the AUC(0-inf) [37] was 620 ng·h/mL. For the same compound, the bioavailability [38] was 26%, the Tmax [39] was 0.33 h and the Cmax [40] was 900 ng/mL. For the same compound, the half-life [41] was 5.52 h, the AUC(0-t) [42] was 1510 ng·h/mL and the AUC(0-inf) [43] was 1600 ng·h/mL. For the same compound, the bioavailability [44] was 21.9%, the Activity (Hepatitis B virus [45]) was 13% and the “fold change (FC)” value (Hepatitis B virus [46]) was 8. For the same compound, the Activity (Hepatitis B virus [47]) was 183%, the Activity (Hepatitis B virus [48]) was 19% and the Activity (HepG2 [49]) was “No effect”. The Activity (HepG2 [50]) was “No effect”, the Activity (HepG2 [51]) was “No effect” and the “fold change (FC)” value (Hepatitis B virus [52]) was about 2. For the same compound, the Activity (Hepatitis B virus [53]) was “Active; Compound Modestly Decreased Hbc Level”, the Activity (Hepatitis B virus [54]) was 129% and the Ratio (Hepatitis B virus [55]) was 10%.

Reference: ChEMBL document CHEMBL6177968, “Development of sulfamoylbenzamide-based capsid assembly modulators for hepatitis B virus capsid assembly” (Eur J Med Chem, 2025)
